What was measured:
[1] = biological target: Serine/threonine-protein kinase 16 (Homo sapiens) (UniProt O75716); details: Compound concentration 1000.0 nM
[2] = biological target: G protein-coupled receptor kinase 4 (Homo sapiens) (UniProt P32298); details: Compound concentration 1000.0 nM
[3] = biological target: Dual specificity testis-specific protein kinase 1 (Homo sapiens) (UniProt Q15569); details: Compound concentration 1000.0 nM
[4] = biological target: Peripheral plasma membrane protein CASK (Homo sapiens) (UniProt O14936); details: Compound concentration 1000.0 nM
Sequence of Peripheral plasma membrane protein CASK (Homo sapiens) (O14936 whole entry): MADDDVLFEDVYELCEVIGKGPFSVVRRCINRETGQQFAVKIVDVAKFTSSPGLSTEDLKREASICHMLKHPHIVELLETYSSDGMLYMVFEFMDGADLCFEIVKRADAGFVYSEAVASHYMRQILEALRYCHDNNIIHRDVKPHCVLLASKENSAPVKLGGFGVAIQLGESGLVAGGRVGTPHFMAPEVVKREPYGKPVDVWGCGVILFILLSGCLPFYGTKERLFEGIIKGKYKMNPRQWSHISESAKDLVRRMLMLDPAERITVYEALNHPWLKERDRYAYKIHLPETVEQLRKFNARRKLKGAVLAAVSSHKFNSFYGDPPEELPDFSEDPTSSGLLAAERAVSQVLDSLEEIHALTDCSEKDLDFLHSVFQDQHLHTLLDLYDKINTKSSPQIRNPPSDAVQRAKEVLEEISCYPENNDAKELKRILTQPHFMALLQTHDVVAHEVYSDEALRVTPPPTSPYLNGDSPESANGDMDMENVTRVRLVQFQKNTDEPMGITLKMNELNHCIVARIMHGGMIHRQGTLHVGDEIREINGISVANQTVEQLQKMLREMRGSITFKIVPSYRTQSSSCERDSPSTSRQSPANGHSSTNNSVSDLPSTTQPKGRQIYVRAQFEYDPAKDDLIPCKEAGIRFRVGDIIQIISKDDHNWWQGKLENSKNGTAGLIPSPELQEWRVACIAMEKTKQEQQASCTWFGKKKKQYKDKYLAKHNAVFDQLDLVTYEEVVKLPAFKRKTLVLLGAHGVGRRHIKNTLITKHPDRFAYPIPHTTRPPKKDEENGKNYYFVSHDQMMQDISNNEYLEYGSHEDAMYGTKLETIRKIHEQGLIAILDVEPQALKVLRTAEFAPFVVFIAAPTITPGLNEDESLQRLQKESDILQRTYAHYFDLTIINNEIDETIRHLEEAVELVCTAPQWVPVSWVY

[5] = biological target: Calcium/calmodulin-dependent protein kinase type II subunit alpha (Homo sapiens) (UniProt Q9UQM7); details: Compound concentration 1000.0 nM
Sequence of Calcium/calmodulin-dependent protein kinase type II subunit alpha (Homo sapiens) (Q9UQM7 whole entry): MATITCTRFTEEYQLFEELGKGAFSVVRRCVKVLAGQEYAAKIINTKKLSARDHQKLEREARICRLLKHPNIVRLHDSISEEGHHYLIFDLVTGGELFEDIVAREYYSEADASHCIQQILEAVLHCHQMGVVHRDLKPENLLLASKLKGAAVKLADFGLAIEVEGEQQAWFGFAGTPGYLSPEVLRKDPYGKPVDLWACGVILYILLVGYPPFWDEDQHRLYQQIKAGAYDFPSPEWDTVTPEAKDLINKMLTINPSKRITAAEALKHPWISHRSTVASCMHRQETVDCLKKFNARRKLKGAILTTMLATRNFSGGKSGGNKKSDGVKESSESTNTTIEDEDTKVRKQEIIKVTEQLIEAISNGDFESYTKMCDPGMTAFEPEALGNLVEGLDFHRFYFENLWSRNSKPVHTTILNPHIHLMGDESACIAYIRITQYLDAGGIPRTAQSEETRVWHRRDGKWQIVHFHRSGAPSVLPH

[6] = biological target: Cyclin-dependent kinase 7 (Homo sapiens) (UniProt P50613); details: Compound concentration 1000.0 nM
[7] = biological target: Ephrin type-A receptor 1 (Homo sapiens) (UniProt P21709); details: Compound concentration 1000.0 nM
[8] = tested on: Mast/stem cell growth factor receptor Kit (Homo sapiens), P10721 [L576P]; details: Compound concentration 1000.0 nM
Sequence of Mast/stem cell growth factor receptor Kit (Homo sapiens), P10721 [L576P] (P10721 whole entry L576P): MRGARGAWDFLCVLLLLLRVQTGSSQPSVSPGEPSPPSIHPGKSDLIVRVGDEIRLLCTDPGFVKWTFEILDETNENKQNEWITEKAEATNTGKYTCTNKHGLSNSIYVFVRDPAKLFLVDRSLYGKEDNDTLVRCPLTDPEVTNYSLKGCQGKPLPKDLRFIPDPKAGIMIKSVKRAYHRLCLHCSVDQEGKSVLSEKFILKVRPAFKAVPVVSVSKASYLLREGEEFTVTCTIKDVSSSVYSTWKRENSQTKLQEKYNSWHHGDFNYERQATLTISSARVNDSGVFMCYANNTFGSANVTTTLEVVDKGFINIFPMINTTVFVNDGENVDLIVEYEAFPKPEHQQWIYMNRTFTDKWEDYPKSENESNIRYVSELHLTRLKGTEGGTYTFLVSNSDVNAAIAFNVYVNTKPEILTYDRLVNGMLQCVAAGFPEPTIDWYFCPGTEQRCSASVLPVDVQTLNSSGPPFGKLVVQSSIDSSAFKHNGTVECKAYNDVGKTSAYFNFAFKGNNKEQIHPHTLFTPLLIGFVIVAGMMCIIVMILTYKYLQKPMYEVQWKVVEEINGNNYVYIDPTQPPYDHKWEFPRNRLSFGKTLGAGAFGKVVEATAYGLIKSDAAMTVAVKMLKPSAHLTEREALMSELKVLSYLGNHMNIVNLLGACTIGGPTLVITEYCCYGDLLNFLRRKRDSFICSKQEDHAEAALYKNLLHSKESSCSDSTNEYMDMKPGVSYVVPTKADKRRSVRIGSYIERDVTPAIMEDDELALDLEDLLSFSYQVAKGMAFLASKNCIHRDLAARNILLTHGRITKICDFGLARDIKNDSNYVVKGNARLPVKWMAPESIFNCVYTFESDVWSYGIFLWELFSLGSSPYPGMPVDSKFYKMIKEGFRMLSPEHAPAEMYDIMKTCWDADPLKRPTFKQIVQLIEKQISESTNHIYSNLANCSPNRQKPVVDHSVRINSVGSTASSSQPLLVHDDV

[9] = biological target: Ribosomal protein S6 kinase alpha-4 (Homo sapiens) (UniProt O75676); details: Compound concentration 1000.0 nM
Sequence of Ribosomal protein S6 kinase alpha-4 (Homo sapiens) (O75676 whole entry, looked up): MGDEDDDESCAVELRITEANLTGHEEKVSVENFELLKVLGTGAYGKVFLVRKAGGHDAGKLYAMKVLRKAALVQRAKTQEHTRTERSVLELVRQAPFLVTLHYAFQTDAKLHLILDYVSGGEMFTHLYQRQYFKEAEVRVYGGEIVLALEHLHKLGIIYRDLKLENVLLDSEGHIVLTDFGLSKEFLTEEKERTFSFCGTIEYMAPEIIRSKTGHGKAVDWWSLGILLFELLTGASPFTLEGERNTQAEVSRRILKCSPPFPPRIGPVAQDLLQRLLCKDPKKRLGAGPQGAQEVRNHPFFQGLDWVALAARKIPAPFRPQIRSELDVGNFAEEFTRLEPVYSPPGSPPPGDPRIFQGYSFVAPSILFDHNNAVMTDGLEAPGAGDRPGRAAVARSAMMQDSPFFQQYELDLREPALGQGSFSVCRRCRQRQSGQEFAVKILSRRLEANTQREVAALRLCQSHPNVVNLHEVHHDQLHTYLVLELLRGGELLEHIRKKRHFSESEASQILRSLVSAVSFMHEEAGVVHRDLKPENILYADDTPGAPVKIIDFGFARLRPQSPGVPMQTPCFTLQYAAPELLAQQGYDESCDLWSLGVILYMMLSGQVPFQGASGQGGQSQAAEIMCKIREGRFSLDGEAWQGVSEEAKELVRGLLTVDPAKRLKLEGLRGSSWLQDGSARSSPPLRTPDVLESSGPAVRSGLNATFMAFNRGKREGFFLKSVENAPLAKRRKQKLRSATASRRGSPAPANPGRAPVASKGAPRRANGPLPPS

[10] = tested on: Receptor-type tyrosine-protein kinase FLT3 (Homo sapiens), P36888 [D835H]; details: Compound concentration 1000.0 nM
[11] = biological target: Myotonin-protein kinase (Homo sapiens) (UniProt Q09013); details: Compound concentration 1000.0 nM
Sequence of Myotonin-protein kinase (Homo sapiens) (Q09013 whole entry): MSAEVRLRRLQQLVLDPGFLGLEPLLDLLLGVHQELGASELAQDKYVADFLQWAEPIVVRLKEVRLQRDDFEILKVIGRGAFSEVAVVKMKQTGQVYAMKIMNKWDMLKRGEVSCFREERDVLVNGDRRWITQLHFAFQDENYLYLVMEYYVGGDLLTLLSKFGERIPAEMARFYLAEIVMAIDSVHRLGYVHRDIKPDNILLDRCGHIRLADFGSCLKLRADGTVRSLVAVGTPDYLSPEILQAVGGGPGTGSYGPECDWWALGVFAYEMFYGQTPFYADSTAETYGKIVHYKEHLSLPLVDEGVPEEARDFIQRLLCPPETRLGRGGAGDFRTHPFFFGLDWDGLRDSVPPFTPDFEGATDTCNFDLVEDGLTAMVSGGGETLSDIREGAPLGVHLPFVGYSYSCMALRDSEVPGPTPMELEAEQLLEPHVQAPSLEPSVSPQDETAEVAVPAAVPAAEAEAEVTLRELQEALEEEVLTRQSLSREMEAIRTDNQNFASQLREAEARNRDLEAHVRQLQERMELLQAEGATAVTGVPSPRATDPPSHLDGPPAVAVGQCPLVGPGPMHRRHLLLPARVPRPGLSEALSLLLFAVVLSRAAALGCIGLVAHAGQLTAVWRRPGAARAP

[12] = biological target: Serine/threonine-protein kinase Nek1 (Homo sapiens) (UniProt Q96PY6); details: Compound concentration 1000.0 nM
[13] = biological target: Non-receptor tyrosine-protein kinase TYK2 (Homo sapiens) (UniProt P29597); details: Compound concentration 1000.0 nM
[14] = biological target: LIM domain kinase 1 (Homo sapiens) (UniProt P53667); details: Compound concentration 1000.0 nM
[15] = biological target: Vascular endothelial growth factor receptor 1 (Homo sapiens) (UniProt P17948); details: Compound concentration 1000.0 nM
[16] = biological target: Myosin light chain kinase 2, skeletal/cardiac muscle (Homo sapiens) (UniProt Q9H1R3); details: Compound concentration 1000.0 nM
[17] = biological target: Serine/threonine-protein kinase 35 (Homo sapiens) (UniProt Q8TDR2); details: Compound concentration 1000.0 nM
[18] = biological target: Phosphatidylinositol 4,5-bisphosphate 3-kinase catalytic subunit delta isoform (Homo sapiens) (UniProt O00329); details: Compound concentration 1000.0 nM
[19] = biological target: Muscarinic acetylcholine receptor M5 (Homo sapiens) (UniProt P08912); details: Compound concentration 10.0 uM
[20] = biological target: SRSF protein kinase 2 (Homo sapiens) (UniProt P78362); details: Compound concentration 1000.0 nM
[21] = biological target: Receptor-type tyrosine-protein kinase FLT3 (Homo sapiens) (UniProt P36888); details: Compound concentration 1000.0 nM
[22] = biological target: ALK tyrosine kinase receptor (Homo sapiens) (UniProt Q9UM73); details: Compound concentration 1000.0 nM
[23] = biological target: Tyrosine-protein kinase JAK2 (Homo sapiens) (UniProt O60674); details: Compound concentration 1000.0 nM
[24] = biological target: Glycogen synthase kinase-3 beta (Homo sapiens) (UniProt P49841); details: Compound concentration 1000.0 nM
[25] = biological target: Serine/threonine-protein kinase PLK2 (Homo sapiens) (UniProt Q9NYY3); details: Compound concentration 1000.0 nM
Sequence of Serine/threonine-protein kinase PLK2 (Homo sapiens) (Q9NYY3 whole entry, looked up): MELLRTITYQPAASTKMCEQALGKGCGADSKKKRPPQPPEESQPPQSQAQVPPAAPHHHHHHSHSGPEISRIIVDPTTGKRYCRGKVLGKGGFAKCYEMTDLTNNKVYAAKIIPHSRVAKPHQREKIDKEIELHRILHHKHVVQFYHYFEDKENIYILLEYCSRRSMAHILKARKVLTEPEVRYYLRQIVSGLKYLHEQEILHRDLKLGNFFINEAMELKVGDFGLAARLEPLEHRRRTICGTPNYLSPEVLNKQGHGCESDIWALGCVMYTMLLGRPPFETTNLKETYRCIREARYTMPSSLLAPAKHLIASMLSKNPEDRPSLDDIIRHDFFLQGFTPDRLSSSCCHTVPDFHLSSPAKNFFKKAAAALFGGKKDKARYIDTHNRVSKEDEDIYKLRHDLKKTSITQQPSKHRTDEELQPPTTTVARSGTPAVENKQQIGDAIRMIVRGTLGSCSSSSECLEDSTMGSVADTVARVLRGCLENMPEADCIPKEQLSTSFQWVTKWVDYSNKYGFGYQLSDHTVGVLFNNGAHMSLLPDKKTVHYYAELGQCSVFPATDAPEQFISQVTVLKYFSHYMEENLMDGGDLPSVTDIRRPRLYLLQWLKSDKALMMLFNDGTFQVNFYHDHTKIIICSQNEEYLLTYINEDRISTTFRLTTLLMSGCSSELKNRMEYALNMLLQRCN

[26] = biological target: Serine/threonine-protein kinase PAK 2 (Homo sapiens) (UniProt Q13177); details: Compound concentration 1000.0 nM
[27] = biological target: Serine/threonine-protein kinase 10 (Homo sapiens) (UniProt O94804); details: Compound concentration 1000.0 nM
[28] = biological target: Insulin-like growth factor 1 receptor (Homo sapiens) (UniProt P08069); details: Compound concentration 1000.0 nM
[29] = biological target: Tyrosine-protein kinase Lck (Homo sapiens) (UniProt P06239); details: Compound concentration 1000.0 nM
[30] = biological target: Cytoplasmic tyrosine-protein kinase BMX (Homo sapiens) (UniProt P51813); details: Compound concentration 1000.0 nM
[31] = biological target: Ephrin type-B receptor 1 (Homo sapiens) (UniProt P54762); details: Compound concentration 1000.0 nM
[32] = biological target: 3-phosphoinositide-dependent protein kinase 1 (Homo sapiens) (UniProt O15530); details: Compound concentration 1000.0 nM
[33] = tested on: Mast/stem cell growth factor receptor Kit (Homo sapiens), P10721 [A829P]; details: Compound concentration 1000.0 nM
Sequence of Mast/stem cell growth factor receptor Kit (Homo sapiens), P10721 [A829P] (P10721 whole entry A829P): as the sequence (P10721 whole entry L576P) above, with P576L, A829P counted along it

[34] = tested on: Tyrosine-protein kinase ABL1 (Homo sapiens), P00519 [Q252H]; details: Compound concentration 1000.0 nM
[35] = biological target: Hepatocyte growth factor receptor (Homo sapiens) (UniProt P08581); details: Compound concentration 1000.0 nM
[36] = biological target: Tyrosine-protein kinase Fyn (Homo sapiens) (UniProt P06241); details: Compound concentration 1000.0 nM
[37] = tested on: ALK tyrosine kinase receptor (Homo sapiens), Q9UM73 [C1156Y]; details: Compound concentration 1000.0 nM
[38] = biological target: Mitogen-activated protein kinase 1 (Homo sapiens) (UniProt P28482); details: Compound concentration 1000.0 nM
[39] = biological target: Ribosomal protein S6 kinase alpha-6 (Homo sapiens) (UniProt Q9UK32); details: Compound concentration 1000.0 nM
[40] = biological target: Tyrosine-protein kinase ZAP-70 (Homo sapiens) (UniProt P43403); details: Compound concentration 1000.0 nM
[41] = biological target: Serine/threonine-protein kinase MRCK alpha (Homo sapiens) (UniProt Q5VT25); details: Compound concentration 1000.0 nM
[42] = biological target: Serine/threonine-protein kinase Nek6 (Homo sapiens) (UniProt Q9HC98); details: Compound concentration 1000.0 nM
[43] = biological target: Fibroblast growth factor receptor 3 (Homo sapiens) (UniProt P22607); details: Compound concentration 1000.0 nM
[44] = biological target: Dual specificity protein kinase CLK4 (Homo sapiens) (UniProt Q9HAZ1); details: Compound concentration 1000.0 nM
Sequence of Dual specificity protein kinase CLK4 (Homo sapiens) (Q9HAZ1 whole entry, looked up): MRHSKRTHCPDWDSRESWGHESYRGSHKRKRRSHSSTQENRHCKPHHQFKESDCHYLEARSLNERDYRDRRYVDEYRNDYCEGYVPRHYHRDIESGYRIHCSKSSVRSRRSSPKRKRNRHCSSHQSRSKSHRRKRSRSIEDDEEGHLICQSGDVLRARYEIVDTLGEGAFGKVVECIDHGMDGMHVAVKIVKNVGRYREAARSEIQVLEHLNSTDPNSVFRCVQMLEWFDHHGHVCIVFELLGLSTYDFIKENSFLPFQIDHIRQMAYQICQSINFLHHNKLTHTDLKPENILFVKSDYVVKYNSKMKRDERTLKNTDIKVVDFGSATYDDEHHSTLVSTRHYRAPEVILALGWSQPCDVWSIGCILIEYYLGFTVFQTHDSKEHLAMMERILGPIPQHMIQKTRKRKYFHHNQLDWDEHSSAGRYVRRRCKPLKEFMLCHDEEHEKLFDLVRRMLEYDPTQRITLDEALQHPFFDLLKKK

[45] = biological target: D(1B) dopamine receptor (Homo sapiens) (UniProt P21918); details: Compound concentration 10.0 uM

Structure (SMILES): CCS(=O)(=O)c1cc2cc(C[C@@](O)(CC(C)(C)c3ccc(F)cc3C(N)=O)C(F)(F)F)[nH]c2cn1
- residual activity [1]: 91%
- residual activity [2]: 100%
- residual activity [3]: 77%
- residual activity [4]: 100%
- residual activity [5]: 100%
- residual activity [6]: 99%
- residual activity [7]: 99%
- residual activity [8]: 100%
- residual activity [9]: 78%
- residual activity [10]: 100%
- residual activity [11]: 85%
- residual activity [12]: 53%
- residual activity [13]: 83%
- residual activity [14]: 100%
- residual activity [15]: 67%
- residual activity [16]: 100%
- residual activity [17]: 100%
- residual activity [18]: 90%
- inhibition [19]: -0.62%
- residual activity [20]: 70%
- residual activity [21]: 100%
- residual activity [22]: 100%
- residual activity [23]: 100%
- residual activity [24]: 90%
- residual activity [25]: 100%
- residual activity [26]: 94%
- residual activity [27]: 100%
- residual activity [28]: 100%
- residual activity [29]: 81%
- residual activity [30]: 50%
- residual activity [31]: 92%
- residual activity [32]: 100%
- residual activity [33]: 73%
- residual activity [34]: 79%
- residual activity [35]: 100%
- residual activity [36]: 100%
- residual activity [37]: 100%
- residual activity [38]: 94%
- residual activity [39]: 100%
- residual activity [40]: 72%
- residual activity [41]: 100%
- residual activity [42]: 100%
- residual activity [43]: 80%
- residual activity [44]: 100%
- inhibition [45]: 32.4%

Structure (SMILES): CCS(=O)(=O)c1cc2cc(C[C@](O)(CC(C)(C)c3ccc(F)cc3C(N)=O)C(F)(F)F)[nH]c2cn1
- residual activity [1]: 100%
- residual activity [2]: 100%
- residual activity [3]: 100%
- residual activity [4]: 100%
- residual activity [5]: 94%
- residual activity [6]: 95%
- residual activity [7]: 100%
- residual activity [8]: 83%
- residual activity [9]: 98%
- residual activity [10]: 100%
- residual activity [11]: 99%
- residual activity [12]: 45%
- residual activity [13]: 93%
- residual activity [14]: 100%
- residual activity [15]: 81%
- residual activity [16]: 98%
- residual activity [17]: 100%
- residual activity [18]: 89%
- inhibition [19]: 1.86%
- residual activity [20]: 82%
- residual activity [21]: 85%
- residual activity [22]: 100%
- residual activity [23]: 53%
- residual activity [24]: 100%
- residual activity [25]: 91%
- residual activity [26]: 86%
- residual activity [27]: 100%
- residual activity [28]: 100%
- residual activity [29]: 100%
- residual activity [30]: 74%
- residual activity [31]: 86%
- residual activity [32]: 100%
- residual activity [33]: 89%
- residual activity [34]: 100%
- residual activity [35]: 98%
- residual activity [36]: 77%
- residual activity [37]: 96%
- residual activity [38]: 100%
- residual activity [39]: 82%
- residual activity [40]: 71%
- residual activity [41]: 89%
- residual activity [42]: 100%
- residual activity [43]: 100%
- residual activity [44]: 95%
- inhibition [45]: 34.2%
